# Data from publication PMC9345997, “Determination of oligosaccharide product distributions of PL7 alginate lyases by their structural elements” (Communications Biology, 2022).
# Target: T1, PyAly (Pyropia yezoensis, UniProt D2KX85, H125A/Y223A)
# T1 construct: single-domain PL7 lyase; E. coli BL21(DE3), pET32a; tag cleaved; residues built 27-241
# Assay: X-ray crystal structure, […] A
# Assay type: binding
# Conditions: cocrystallized at 10:1 molar ratio; complete M5 at subsites -2 to +3
# T1 sequence (D2KX85 entry or part of it H125A/Y223A): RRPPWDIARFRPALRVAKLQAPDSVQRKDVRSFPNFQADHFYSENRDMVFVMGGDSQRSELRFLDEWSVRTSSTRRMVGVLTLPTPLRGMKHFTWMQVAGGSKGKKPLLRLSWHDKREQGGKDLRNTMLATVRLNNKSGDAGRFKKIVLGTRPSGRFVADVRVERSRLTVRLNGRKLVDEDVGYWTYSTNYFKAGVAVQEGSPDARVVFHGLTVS
smiles,measurement,value
O=C(O)[C@H]1O[C@@H](O[C@H]2[C@H](O)[C@H](O)[C@H](O[C@H]3[C@H](O)[C@H](O)[C@H](O[C@H]4[C@H](O)[C@H](O)[C@H](O[C@H]5[C@H](O)[C@H](O)C(O)O[C@@H]5C(=O)O)O[C@@H]4C(=O)O)O[C@@H]3C(=O)O)O[C@@H]2C(=O)O)[C@@H](O)[C@@H](O)[C@@H]1O (stereo partly shown) [M5],"X-ray crystal structure, 1.70 A",structure of the PyAly^H125A_Y223A-M5 complex presented the complete M5 substrate
